Paper PMC12349723, “Computationally accelerated identification of P-glycoprotein inhibitors” (PLOS One, 2025)
Several values for one entry are separate records, joined by “and”; a condition that tells them apart may be missing. Equal entries are not always repeated.

System: not listed separately
Assay: SWISS-ADME computational analysis of chemical properties
Settings: predicted aqueous solubility compared to that observed in the laboratory
From the text: (§1) Identifying P-gp inhibitors that are not transport substrates remains inherently challenging. To that end, computational tools such as the SWISS-ADME server attempt to use a molecule’s unique chemical and structural characteristics to predict whether it is likely to be a P-gp transport substrate. Our LC-MS/MS assays allowed us to retroactively test the validity of predictions from SWISS-ADME. […] Alternative identifiers for the molecules identified in this study are shown in S7 Table.
(§2) S1 Table. Known P-gp Inhibitors and Predicted Chemical Properties. A non-exhaustive list of known P-gp inhibitors and their selected chemical properties ^[64, 65]. Clinical trial outcomes were adapted from ^[10, 11]. Compounds were evaluated using the SWISS-ADME server ^[54]. […] “Predicted P-gp Substrate” - predicted by SWISS-ADME to be a transport substrate of P-gp. “Known P-gp Substrate” – In addition to being P-gp inhibitors, these molecules are: known transport substrates of P-gp, known non-transport substrates of P-gp, unknown whether it is a transport substrate of P-gp ^[66-68]. If the molecule is designated in a specific generation of P-gp inhibitors - First Generation P-gp inhibitors, Second generation P-gp inhibitors, Third generation P-gp inhibitors.

SMILES | Correct Water Solubility Prediction?
O=S(=O)(Cc1nc2ccccc2n1CC(O)c1ccc(Cl)cc1)c1ccccc1 (stereo not shown) [Compound 97, OC(Cn1c(CS(=O)(=O)c2ccccc2)nc2ccccc12)c1ccc(Cl)cc1] | Yes

System: P-gp
Assay: SWISS-ADME prediction of P-gp transport substrate
Settings: prediction compared to the LC-MS/MS intracellular accumulation data
From the text: as §1, §2

SMILES | Correct P-gp Substrate Prediction?
O=S(=O)(Cc1nc2ccccc2n1CC(O)c1ccc(Cl)cc1)c1ccccc1 (stereo not shown) [Compound 97, OC(Cn1c(CS(=O)(=O)c2ccccc2)nc2ccccc12)c1ccc(Cl)cc1] | Yes

System: A2780 cells
Assay: MTT viability assay, parental A2780 cells, with or without PTX
Assay type: cell-based, human
Settings: 15 µM compound with or without 500 nM PTX, 48 h, MTT
Procedure: (§3) The chemotherapeutic sensitive DU145 human prostate cancer cells and the multidrug resistant sub-line, DU145-TXR, were generous gifts from Dr. Evan Keller (University of Michigan, Ann Arbor, MI). The MDR, P-gp overexpressing DU145-TXR cells were maintained under positive selection pressure by supplementing complete medium with 10 nM paclitaxel (Acros Organics, NJ). In addition to the aforementioned cell lines, the chemotherapeutic sensitive A2780 ovarian cancer cells (93112519, Sigma) and the multidrug resistant A2780-ADR (93112520, Sigma) were maintained in complete RPMI media consisting of RPMI-1640 with L-glutamine, 10% fetal bovine serum (FBS; Corning), 100 U/mL penicillin and 100 μg/mL streptomycin in a humidified incubator at 37 °C and 5% CO2. The MDR, P-gp overexpressing A2780-ADR cell line was maintained under positive selection pressure by supplementing complete medium with 100 nM doxorubicin (Fisher Scientific, NJ). The non-cancerous HFL1 (human lung fibroblast) cell line cell line was a generous gift from Dr. Robert Harrod (Southern Methodist University, Dallas, TX) and was maintained in complete F12K media consisting of F12K with 10% fetal bovine serum, 100 U/mL penicillin, and 100 µg/mL streptomycin (Gibco). Flasks and 96 well plates that were used with the non-cancerous line HFL1 were pre-treated with 0.1 mg/ml Collagen Type 1 (Gibco) and rinsed with PBS (Fisher).
(§4) Culture of the DU145, DU145-TXR, and HFL1 cell lines was performed as described in [8]. Culture of the A2780 and A2780-ADR cell lines was performed as described in [9]. MTT assays were performed as described in [8] with minor modifications. LC-MS/MS accumulation assays were performed as described in {Nanayakkara, 2018 #173} [9] with some modifications. […] The inhibitor concentration was lowered to 15 µM here, as the goal of the study was to identify compounds that were effective in reversing MDR at low concentrations, and to determine if the expanded virtual-assisted methods improved on our first-draft attempt. Compounds 56–98 were pre-screened using Resazurin cell viability assays: cells were incubated with 15 µM compound with or without 500 nM PTX for 48 hours, after which cell survival was assessed similar to [39]. Data represent the mean of two separate experiments, with n = 3 samples per experiment (n = 6 total) (S4 Table). The top performing compounds from this initial screen were re-tested with MTT viability assays against DU145-TXR cells, as described below.
(§5) MTT assays measure the reduction of yellow, water soluble 3-(4,5-dimethylthiazol-2-yl)-2,5-diphenyltetrazolium bromide (MTT) to blue, insoluble formazan crystals by cellular reductase processes in living cells. Cells were trypsinized from monolayers and seeded in complete medium in 96 well plates. Cancerous cell lines (DU145, DU145-TXR, A2780, A2780-ADR) were seeded at 3,000 cells per well in complete RPMI medium. The non-cancerous HFL1 line was seeded at 4,000 cells per well in complete F12K medium, in collagen-treated plates (Collagen Type 1, Gibco). Cells were incubated with experimental compounds for 48 hours at 37 °C and 5% CO2 in a humidified incubator. At 48 hours, MTT was added (20 µL/well of 5 mg/mL MTT in PBS) to each well. After incubation for 4 hours, the media was removed, and the formazan crystals were dissolved in 100 µL DMSO per well. Plates containing the semi-adherent A2780 or A2780-ADR lines were spun at 1400 rpm for 3 minutes prior to aspiration of media, and the addition of DMSO. Plates were shaken for 10 minutes at 500 rpm on an Orbital shaker (LabDoctor from MidSci, St Louis, MO). The absorbance was measured at 570 nm using a Bio-Tek Cytation 5 (Bio-Tek, Winooski, VT). The measured absorbance value was correlated with the number of metabolically active cells in that well, corrected for absorbance of media. […]

SMILES | Increase of PTX toxicity against parental A2780 cells
O=S(=O)(Cc1nc2ccccc2n1CC(O)c1ccc(Cl)cc1)c1ccccc1 (stereo not shown) [Compound 97, OC(Cn1c(CS(=O)(=O)c2ccccc2)nc2ccccc12)c1ccc(Cl)cc1] | did not greatly increase the toxicity of PTX against the parental A2780 cells

Same assay, conditions: A2780 cells, 15 µM compound + 500 nM PTX, mean of 8 or 12 samples

SMILES | Mean % Survival [%]
O=S(=O)(Cc1nc2ccccc2n1CC(O)c1ccc(Cl)cc1)c1ccccc1 (stereo not shown) [Compound 97, OC(Cn1c(CS(=O)(=O)c2ccccc2)nc2ccccc12)c1ccc(Cl)cc1] | 13.0

Same assay, conditions: A2780 cells, 15 µM compound + 500 nM PTX, single samples

SMILES | % Survival (individual sample)
O=S(=O)(Cc1nc2ccccc2n1CC(O)c1ccc(Cl)cc1)c1ccccc1 (stereo not shown) [Compound 97, OC(Cn1c(CS(=O)(=O)c2ccccc2)nc2ccccc12)c1ccc(Cl)cc1] | 8% and 19%

Same assay, conditions: Homo sapiens, A2780, A2780 cells, 15 µM compound alone, mean of 8 or 12 samples; read-out: Mean % Survival

SMILES | viability at 15 µM [%]
O=S(=O)(Cc1nc2ccccc2n1CC(O)c1ccc(Cl)cc1)c1ccccc1 (stereo not shown) [Compound 97, OC(Cn1c(CS(=O)(=O)c2ccccc2)nc2ccccc12)c1ccc(Cl)cc1] | 89.8

Target: T1, P-gp (Homo sapiens, UniProt P08183)
T1 construct: The MDR, P-gp overexpressing DU145-TXR cells were maintained under positive selection pressure; endogenous in cells; host or cells: DU145-TXR (paclitaxel-resistant sub-line of DU145 human prostate cancer cells)
Assay: Top Hit classification from combined in vitro criteria
Settings: reverse MDR, do not increase PTX toxicity in chemo-sensitive cancer cells, non-toxic to noncancerous cells, not P-gp substrates

T1 sequence (P08183 whole entry): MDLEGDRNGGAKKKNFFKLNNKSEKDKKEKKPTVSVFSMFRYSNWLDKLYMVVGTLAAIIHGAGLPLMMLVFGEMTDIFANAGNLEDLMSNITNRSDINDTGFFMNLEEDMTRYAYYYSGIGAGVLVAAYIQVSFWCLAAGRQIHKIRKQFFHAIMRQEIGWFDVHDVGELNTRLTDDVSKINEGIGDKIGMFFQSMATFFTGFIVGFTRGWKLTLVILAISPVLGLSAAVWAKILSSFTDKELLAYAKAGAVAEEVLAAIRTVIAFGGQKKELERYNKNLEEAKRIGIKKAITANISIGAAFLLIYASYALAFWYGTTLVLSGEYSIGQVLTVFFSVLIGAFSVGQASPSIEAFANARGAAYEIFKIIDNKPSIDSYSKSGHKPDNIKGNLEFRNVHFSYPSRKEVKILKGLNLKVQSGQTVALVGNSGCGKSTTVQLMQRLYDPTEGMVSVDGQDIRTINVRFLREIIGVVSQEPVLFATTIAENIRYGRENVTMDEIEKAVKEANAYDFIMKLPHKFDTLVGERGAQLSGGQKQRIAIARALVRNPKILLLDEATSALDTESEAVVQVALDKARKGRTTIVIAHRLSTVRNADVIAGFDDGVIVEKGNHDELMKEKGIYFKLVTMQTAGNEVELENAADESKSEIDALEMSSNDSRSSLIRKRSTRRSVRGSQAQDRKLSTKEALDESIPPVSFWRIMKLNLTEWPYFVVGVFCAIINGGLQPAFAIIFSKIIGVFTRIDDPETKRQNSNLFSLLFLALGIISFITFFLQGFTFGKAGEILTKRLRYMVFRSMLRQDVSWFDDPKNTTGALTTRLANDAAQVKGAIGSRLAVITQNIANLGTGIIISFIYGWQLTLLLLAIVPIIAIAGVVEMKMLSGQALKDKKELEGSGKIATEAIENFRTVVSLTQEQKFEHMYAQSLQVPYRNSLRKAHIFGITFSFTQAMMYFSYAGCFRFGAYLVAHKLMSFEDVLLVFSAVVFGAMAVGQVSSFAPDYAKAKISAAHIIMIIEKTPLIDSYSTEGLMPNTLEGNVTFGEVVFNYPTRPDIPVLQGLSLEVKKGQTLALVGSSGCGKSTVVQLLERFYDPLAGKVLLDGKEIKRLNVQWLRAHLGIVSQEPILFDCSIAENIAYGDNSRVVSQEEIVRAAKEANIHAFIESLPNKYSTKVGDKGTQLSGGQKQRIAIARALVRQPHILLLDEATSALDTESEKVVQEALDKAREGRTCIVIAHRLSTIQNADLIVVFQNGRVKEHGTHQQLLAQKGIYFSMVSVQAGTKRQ

SMILES | Top Hit
O=S(=O)(Cc1nc2ccccc2n1CC(O)c1ccc(Cl)cc1)c1ccccc1 (stereo not shown) [Compound 97, OC(Cn1c(CS(=O)(=O)c2ccccc2)nc2ccccc12)c1ccc(Cl)cc1] | Yes

System: DU145-TXR cells
Assay: MTT viability assay, reversal of MDR (re-sensitization to paclitaxel) in P-gp overexpressing DU145-TXR cells
Assay type: cell-based, human
Settings: 15 µM compound + 500 nM PTX (Paclitaxel, Taxol); DU145-TXR; mean of 8 samples
Procedure: as §3, §4, §5

SMILES | % Survival, mean [%]
O=S(=O)(Cc1nc2ccccc2n1CC(O)c1ccc(Cl)cc1)c1ccccc1 (stereo not shown) [Compound 97, OC(Cn1c(CS(=O)(=O)c2ccccc2)nc2ccccc12)c1ccc(Cl)cc1] | 34.9

Same assay, conditions: 15 µM compound + 500 nM PTX (Paclitaxel, Taxol); DU145-TXR; trial 1, sample 1

SMILES | % Survival [%]
O=S(=O)(Cc1nc2ccccc2n1CC(O)c1ccc(Cl)cc1)c1ccccc1 (stereo not shown) [Compound 97, OC(Cn1c(CS(=O)(=O)c2ccccc2)nc2ccccc12)c1ccc(Cl)cc1] | 26

Same assay, conditions: 15 µM compound + 500 nM PTX (Paclitaxel, Taxol); DU145-TXR; trial 1, sample 2

SMILES | % Survival [%]
O=S(=O)(Cc1nc2ccccc2n1CC(O)c1ccc(Cl)cc1)c1ccccc1 (stereo not shown) [Compound 97, OC(Cn1c(CS(=O)(=O)c2ccccc2)nc2ccccc12)c1ccc(Cl)cc1] | 30

Same assay, conditions: 15 µM compound + 500 nM PTX (Paclitaxel, Taxol); DU145-TXR; trial 1, sample 3

SMILES | % Survival [%]
O=S(=O)(Cc1nc2ccccc2n1CC(O)c1ccc(Cl)cc1)c1ccccc1 (stereo not shown) [Compound 97, OC(Cn1c(CS(=O)(=O)c2ccccc2)nc2ccccc12)c1ccc(Cl)cc1] | 24

Same assay, conditions: 15 µM compound + 500 nM PTX (Paclitaxel, Taxol); DU145-TXR; trial 1, sample 4

SMILES | % Survival [%]
O=S(=O)(Cc1nc2ccccc2n1CC(O)c1ccc(Cl)cc1)c1ccccc1 (stereo not shown) [Compound 97, OC(Cn1c(CS(=O)(=O)c2ccccc2)nc2ccccc12)c1ccc(Cl)cc1] | 42

Same assay, conditions: 15 µM compound + 500 nM PTX (Paclitaxel, Taxol); DU145-TXR; trial 2, sample 1

SMILES | % Survival [%]
O=S(=O)(Cc1nc2ccccc2n1CC(O)c1ccc(Cl)cc1)c1ccccc1 (stereo not shown) [Compound 97, OC(Cn1c(CS(=O)(=O)c2ccccc2)nc2ccccc12)c1ccc(Cl)cc1] | 44
